Data set [1] in a line: Octanol-aqueous phosphate buffer distribution coefficient, log D of the compound at pH 7.4 at 100 mM after 24 hrs by LC-MS based shake flask method. Type of data set: physicochemical.
Data set [2] can be described thus: Oral bioavailability in rat at 10 mg/kg. Type of data set: ADME, organism-based. The conditions noted are these: in vivo.
The nature of data set [3]: Clearance in Cynomolgus monkey at 0.3 mg/kg, iv. The data set is classed as ADME, organism-based, Macaca fascicularis. The conditions noted are these: in vivo.
Data set [4] deals with Mus musculus. Put plainly: Inhibition of mRNA splicing of SMN2 exon 7 in C/C-allele mouse harboring FVB.129(B6) Smn1tm5(Smn1/SMN2)Mrph/J assessed as increase in SMN protein level in quadriceps at 10 mg/kg, po qd for 10 days measured 1 hr after 10th dose by HTRF assay relative to control. Type of data set: functional. Details: scale not given: the % may be the effect or the level left. Background: Time-resolved FRET reads energy transfer from a long-lived donor to a nearby acceptor.

A short description of data set [5]: AUC in plasma of wild type mouse at 1 mg/kg, ip measured on postnatal day 10. Type of data set: ADME, organism-based.
A short description of data set [6]: Unbound AUC in plasma of wild type mouse at 1 mg/kg, ip measured on postnatal day 10. To be noted: in vivo. Type of data set: ADME, organism-based.
Data set [7] has as its system Mus musculus. The data set can be described thus: Inhibition of mRNA splicing of SMN2 exon 7 in neonatal delta7 mouse harboring FVB.Cg-Tg(SMN2 delta7)4299Ahmb Tg(SMN2)-89Ahmb Smn1tm1Msd/J assessed as increase in SMN protein level in brain at 0.1 mg/kg, ip qd administered from postnatal day 3 to postnatal day 9 measured 1 hr after last dose by HTRF assay relative to control. The data set is classed as functional. Also on record: scale not given: the % may be the effect or the level left.

Data set [8] relates to Mus musculus. Put plainly: Inhibition of mRNA splicing of SMN2 exon 7 in neonatal delta7 mouse harboring FVB.Cg-Tg(SMN2 delta7)4299Ahmb Tg(SMN2)-89Ahmb Smn1tm1Msd/J assessed as increase in SMN protein level in quadriceps at 1 mg/kg, ip qd administered from postnatal day 3 to postnatal day 9 measured 1 hr after last dose by HTRF assay relative to control. Also on record: scale not given: the % may be the effect or the level left. The data set is classed as functional.

The subject of data set [9] is Mus musculus. Put plainly: Inhibition of mRNA splicing of SMN2 exon 7 in neonatal delta7 mouse harboring FVB.Cg-Tg(SMN2 delta7)4299Ahmb Tg(SMN2)-89Ahmb Smn1tm1Msd/J assessed as increase in SMN protein level in quadriceps at 0.1 mg/kg, ip qd administered from postnatal day 3 to postnatal day 9 measured 1 hr after last dose by HTRF assay relative to control. Also on record: scale not given: the % may be the effect or the level left. Type of data set: functional.

The subject of data set [10] is Mus musculus. Put plainly: Increase in survival of delta7 mouse harboring FVB.Cg-Tg(SMN2 delta7)4299Ahmb Tg(SMN2)89Ahmb Smn1tm1Msd/J at 0.03 to 0.1 mg/kg, ip qd administered from PND3 to PND23 followed by 0.03 to 0.1 mg/kg/day via oral gavage from PND24 to PND65. Type of data set: functional, organism-based.
The test system of data set [11] is Mus musculus. The data set can be described thus: Increase in body weight of delta7 mouse harboring FVB.Cg-Tg(SMN2 delta7)4299Ahmb Tg(SMN2)89Ahmb Smn1tm1Msd/J at 0.03 to 0.1 mg/kg, ip qd administered from PND3 to PND23 followed by 0.03 to 0.1 mg/kg/day via oral gavage from PND24 to PND65. The data set is classed as functional, organism-based.
Data set [12] in a line: AUC in plasma of wild type mouse at 3 mg/kg, ip measured on postnatal day 10. Type of data set: ADME, organism-based.
Data set [13] is described as follows: Unbound AUC in plasma of wild type mouse at 3 mg/kg, ip measured on postnatal day 10. To be noted: in vivo. Type of data set: ADME, organism-based.
Data set [14] relates to Mus musculus. The data set can be described thus: Inhibition of mRNA splicing of SMN2 exon 7 in neonatal delta7 mouse harboring FVB.Cg-Tg(SMN2 delta7)4299Ahmb Tg(SMN2)-89Ahmb Smn1tm1Msd/J assessed as increase in SMN protein level in brain at 3 mg/kg, ip qd administered from postnatal day 3 to postnatal day 9 measured 1 hr after last dose by HTRF assay relative to control. The data set is classed as functional. Also on record: scale not given: the % may be the effect or the level left.

Data set [15] deals with Mus musculus. The data set can be described thus: Inhibition of mRNA splicing of SMN2 exon 7 in neonatal delta7 mouse harboring FVB.Cg-Tg(SMN2 delta7)4299Ahmb Tg(SMN2)-89Ahmb Smn1tm1Msd/J assessed as increase in SMN protein level in quadriceps at 3 mg/kg, ip qd administered from postnatal day 3 to postnatal day 9 measured 1 hr after last dose by HTRF assay relative to control. Type of data set: functional. Details: scale not given: the % may be the effect or the level left.

In data set [16] the test system is Mus musculus. Put plainly: Increase in survival of ip dosed delta7 mouse harboring FVB.Cg-Tg(SMN2 delta7)4299Ahmb Tg(SMN2)89Ahmb Smn1tm1Msd/J administered intraperitoneally once daily from PND3 to PND23 followed by oral gavage dosing qd from PND24 to PND65. The data set is classed as functional, organism-based.
Data set [17] has as its system Mus musculus. Put plainly: Increase in survival of delta7 mouse harboring FVB.Cg-Tg(SMN2 delta7)4299Ahmb Tg(SMN2)89Ahmb Smn1tm1Msd/J assessed as mouse survival beyond PND50 at 1 to 3 mg/kg, ip qd administered from PND3 to PND23 followed by 1 to 3 mg/kg/day via oral gavage from PND24 to PND65. Type of data set: functional.
Data set [18] relates to Mus musculus. The data set can be described thus: Increase in survival of delta7 mouse harboring FVB.Cg-Tg(SMN2 delta7)4299Ahmb Tg(SMN2)89Ahmb Smn1tm1Msd/J assessed as mouse survival beyond PND60 at 3 to 10 mg/kg, ip qd administered from PND3 to PND23 followed by 3 to 10 mg/kg/day via oral gavage from PND24 to PND65. The data set is classed as functional.
Data set [19] deals with Mus musculus. The data set can be described thus: Increase in body weight of delta7 mouse harboring FVB.Cg-Tg(SMN2 delta7)4299Ahmb Tg(SMN2)89Ahmb Smn1tm1Msd/J assessed as mouse body weight beyond PND50 at 1 to 3 mg/kg, ip qd administered from PND3 to PND23 followed by 1 to 3 mg/kg/day via oral gavage from PND24 to PND65. Type of data set: functional, organism-based.
Data set [20] concerns Mus musculus. Put plainly: Increase in body weight of delta7 mouse harboring FVB.Cg-Tg(SMN2 delta7)4299Ahmb Tg(SMN2)89Ahmb Smn1tm1Msd/J assessed as mouse body weight beyond PND60 at 3 to 10 mg/kg, ip qd administered from PND3 to PND23 followed by 3 to 10 mg/kg/day via oral gavage from PND24 to PND65. Type of data set: functional, organism-based.
The species entered for data set [21] is Homo sapiens. The data set can be described thus: Inhibition of mRNA splicing of SMN2 exon 7 in fibroblasts derived from human SMA type 1 patient assessed as increase in SMN protein level at 0.01 to 10 uM by HTRF assay.
Data set [22] is filed under the species Homo sapiens. The data set can be described thus: Inhibition of mRNA splicing of SMN2 exon 7 in spinal motor neurons derived from human SMA type 1/2 patient induced pluripotent stem cells assessed as increase in SMN protein level at 0.01 to 1 uM by HTRF assay. Also on record: scale not given: the % may be the effect or the level left.
For data set [23], the system named is Mus musculus. Put plainly: Inhibition of mRNA splicing of human SMN2 exon 7 in transgenic SMA C/C-allele mouse brain administered orally qd for 10 days. The data set is classed as functional, organism-based.
In data set [24] the test system is Mus musculus. Put plainly: Inhibition of mRNA splicing of human SMN2 exon 7 in transgenic SMA C/C-allele mouse brain assessed as increase in SMN protein level administered orally qd for 10 days. Type of data set: functional, organism-based.

The source made the active and inactive calls. The calls are words filed in the database; no cut-off is given here.

In the case of `Cc1cn2cc(-c3cc(=O)n4cc(N5CCN(C)CC5)ccc4n3)cc(F)c2n1`, the logD (commonly lipophilicity at a set pH, counting ionised and neutral species) at 24 h in data set [1] was 2.3. The bioavailability – broadly, the share of a dose that reaches the circulation, judged against a reference dose that is usually intravenous – in [2] came to 100%. The clearance (commonly the volume of plasma or blood freed of the substance per unit of time) in data set [3] turned out to be 9.7 mL/min/kg. In addition, the Activity in the data set on Mus musculus [4] is 126%; in the data set with Mus musculus [7], 72%; in the data set on Mus musculus [8] it was 260%; in the data set with Mus musculus [9] it was 107%. For the same compound, the AUC (in general, concentration integrated over time) in data set [5] was 4300 ng·h/mL. The compound further came in with a fAUC in data set [6] of 721 ng·h/mL. Further, the result with Mus musculus [10] and with Mus musculus [11] was Active.

In turn, `CCc1nc(C)cn2nc(-c3cc(=O)n4cc(C5CCN(C)CC5)cc(C)c4n3)cc12` returned a logD at 24 h in data set [1] of 2.26. Also, in data set [2], the bioavailability turned out to be 83%. The clearance in [3] turned out to be 5 mL/min/kg. For the same compound, the Activity was 94% in the data set on Mus musculus [4]; 135% in the data set on Mus musculus [14]; 57% in the data set on Mus musculus [8]; 160% in the data set on Mus musculus [15]; “Dose-dependent effect” in the data set on Mus musculus [16]; 60 to 80% in the data set filed under Homo sapiens [22]. In data set [12], the AUC stood at 5900 ng·h/mL. For the same compound, the fAUC in [13] is 118 ng·h/mL. The Survival in the data set on Mus musculus [17] and in the data set with Mus musculus [18] was 80 - 90% throughout. Besides, the result in the data set with Mus musculus [19] and with Mus musculus [20] was Active. Further, the inhibition result in the data set filed under Homo sapiens [21] was “Active”. The inhibition result in the data set on Mus musculus [23] and with Mus musculus [24] was “Dose-dependent effect” throughout.

In [1], `Cc1cn2cc(-c3cc(=O)n4cc(N5CCN(C)CC5)ccc4n3)cc(C)c2n1` came in with a logD at 24 h of 2.49. In data set [2], this compound came in with a bioavailability of 55 to 100%. Further, the clearance in [3] stood at 7.5 mL/min/kg. The Activity is 133% with Mus musculus [4]; 162% in the data set with Mus musculus [14]; 115% in the data set on Mus musculus [8]; 130% with Mus musculus [15]; “Dose-dependent effect” in the data set with Mus musculus [16]. In data set [12], the AUC stood at 1300 ng·h/mL. Also, the fAUC in [13] was determined as 208 ng·h/mL. Further, the Survival in the data set with Mus musculus [17] and with Mus musculus [18] was 80 - 90% throughout. Also, the outcome in the data set on Mus musculus [19] and with Mus musculus [20] was Active.

Source of the values: ChEMBL document CHEMBL4477215, “Specific Correction of Alternative Survival Motor Neuron 2 Splicing by Small Molecules: Discovery of a Potential Novel Medicine To Treat Spinal Muscular Atrophy” (J Med Chem, 2016).
